Reference: US20070014803A1, “METHODS AND COMPOSITIONS FOR DIAGNOSIS AND TREATMENT OF VIRAL AND BACTERIAL INFECTIONS” (Arbor Vita Corporation, priority 2005, published 2007)
Where no end group is shown, it is not given here.

Columns and labels:
[1] = biological target: T1, Shank 2 (Homo sapiens, UniProt Q9UPX8); experiment: MATRIX screen against PDZ library (modified G assay); assay type: binding; details: pre-incubation conditions
T1 construct: made in house
Description: (§1) Matrix graphPeptides and proteins were tested in an array format constituting a near complete set (255) of all the different PDZ domains in the human genome. Each PDZ domain polypeptide was expressed as a recombinant GST-PDZ polypeptide in a commercial glutathione S-transferase tagged expression system. Specific binding of biotinylated-PL peptides to PDZ domain polypeptides was detected using streptavidin-HRP and TMB substrate. Similarly, specific binding of PL protein-MBP fusion proteins to PDZ domain polypeptides was visualized using biotinylated anti-MBP, streptavidin-HRP and TMB substrate. The relative strength of binding was analyzed and the strong and weak binders are shown for each PL. A PDZ protein that binds more strongly is preferable when used for capturing or identifying PL proteins.
(§2) Two different types of ELISA assays were used to test the HIV Peptides 1904 and 1905. The primary MATRIX screen against all PDZ proteins in the library was performed under pre-incubation conditions, which are a modification of the G assay. A pre-incubation assay incubates the peptide with the HRP-streptavidin before addition of the mixture to the PDZ-coated plate. The subsequent titrations of the peptide against the PDZs of interest were performed under normal ELISA G assay conditions. In normal conditions the peptide is incubated on the PDZ coated plate before the later addition of the HRP-streptavidin. The reagents and supplies for both assays are listed below, as well as the two different protocols.
(§3) The PRISM Matrix ELISA modified G Assay was also used for pre-incubation and for the MATRIX assay. The protocol was as follows.
(§4) 1. Coat plate with 100 μl of 5 μg/ml anti-GST, O/N @ 4° C.
(§5) 2. Dump contents out of plate and tap dry on paper towels
(§6) 3. Block with 200 μl Assay Buffer for 1 to 2 hrs at room temperature
(§7) 4. Prepare proteins in Assay Buffer
(§8) 5. Wash plate 3× with cold PBS*
(§9) 6. Add proteins at 50 μl per well, incubate 1 to 2 hrs at 4° C.
(§10) 7. Prepare peptides in Assay Buffer:
(§11) • Prepare peptides in half of volume need with double of desired concentration. • Dilute HRP (1:1000) in another half of volume (same volume with peptide) then mix with peptides. • Incubate the peptide-HRP mixtures for 20 minutes at RT 8. Wash plate 3× with cold PBS* 9. Add peptide-HRP mixtures at 50 μl per well (write time on plate) 10. Incubate at RT after last peptide has been added for exactly 30 minutes 11. Turn on plate reader and prepare files 12. Promptly wash plate 5× with room temperature PBS 13. Add 100 μl/well TMB substrate (write time on plate) 14. Incubate in dark at room temp for a maximum of 30 minutes 15. Stop reaction with 100 μl of 0.18M H2SO4, 30 min. after adding TMB 16. Take last reading at 450 nm soon after stopping reaction

[2] = biological target: T2, GORASP1 d1 (Homo sapiens, UniProt Q9BQQ3); experiment: as above; assay type: binding; details: pre-incubation conditions
T2 construct: made in house
T2 sequence (Q9BQQ3 1-110): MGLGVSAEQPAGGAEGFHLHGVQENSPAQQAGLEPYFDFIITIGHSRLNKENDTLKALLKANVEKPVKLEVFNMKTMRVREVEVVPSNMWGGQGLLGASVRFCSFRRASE
Description: as §1, §2, §3, §4, §5, §6, §7, §8, §9, §10, §11

T1 sequence (Q9UPX8 with tags, fused parts or gaps): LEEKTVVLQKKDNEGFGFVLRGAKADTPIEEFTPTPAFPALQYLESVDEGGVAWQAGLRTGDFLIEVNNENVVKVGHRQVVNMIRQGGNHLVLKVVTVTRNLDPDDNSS

## YGRKKRRQRRRRQGFERALL-OH [Peptide 1905]
[1]
  Intensity of Hit, PDZ Shank 2: STRONG

## YGRKKRRQRRRRQGLERILL-OH [Peptide 1904]
[2]
  Intensity of Hit, PDZ GORASP1 d1: STRONG
